Molecular target: Methionine aminopeptidase (Staphylococcus aureus (strain MW2), UniProt P0A079)
Test: MetAP Inhibition Assay
Settings: pH 7.5; 22 °C
Protocol: The MetAP reaction with Co2+ as a cofactor is coupled to a prolyl aminopeptidase (ProAP) using Met-Pro-p-nitroanilide as substrate. MetAP-catalyzed cleavage of the N-terminal methionine produces prolyl-p-nitroanilide, which is rapidly hydrolyzed by ProAP to release a chromogenic product. This allows the MetAP reaction to be continuously monitored at 405 nm on a UVVIS spectrophotometer. The initial rate was calculated from the early part of the reaction progress curve (<5 min). Activity assays were performed in triplicate using eight to 16 concentrations of substrate or inhibitor.

Chain of Methionine aminopeptidase (P0A079 whole entry): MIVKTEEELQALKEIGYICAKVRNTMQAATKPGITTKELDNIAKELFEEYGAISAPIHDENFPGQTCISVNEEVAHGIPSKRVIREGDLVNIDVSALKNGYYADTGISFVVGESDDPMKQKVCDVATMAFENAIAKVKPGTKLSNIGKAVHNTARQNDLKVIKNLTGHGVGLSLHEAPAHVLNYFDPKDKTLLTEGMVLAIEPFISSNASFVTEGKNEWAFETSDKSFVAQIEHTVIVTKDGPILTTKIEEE

| SMILES | IC50 |
| --- | --- |
| CSCC[C@H](N)c1nnc(SCc2ccccc2)[nH]1 [1,2,4-triazole derivative.] | 43.7 nM |
| Nc1n[nH]c(SCc2ccccc2)n1 [1,2,4-triazole derivative.] | 599 nM |
| Cn1cnnc1SCc1ccccc1 [1,2,4-triazole derivative.] | > 100000 nM |
